Results published in patent US20100279941A1, “CD36 MODULATION AND USES THEREOF” (priority 2009, published 2010).

Tests used:
[1] = Plasma cholesterol, triglyceride, NEFA and glycemia after myocardial ischaemia-reperfusion; format: in vivo, mice; settings: for Triglyceride / Glycemia Post-Reperfusion / Total Cholesterol / Glycemia Before Ischemia: 300 μg/kg/day for 2 weeks; for Triglyceride: mean ± S.E.M.; for Glycemia Post-Reperfusion / Total Cholesterol / Glycemia Before Ischemia: mean ± S.E.M. (n)
Source text: Animals. CD36^−/− mice were generated by targeted homologous recombination and backcrossed six times to C57BI/6. Wild-type control littermates (CD36^+/+) were bred from the same cross and were therefore of identical genetic background [Febbraio et al., 2000]. Male mice, aged 23 (±1) weeks, were used for experiments. They were fed standard chow (#5075, Charles Rivers, Saint-Constant, Québec, Canada) and water ad libitum, and housed singly during treatment periods (2 or 10 weeks). Daily pharmacological treatments with 300 μg/kg of EP 80317 or CP1A(IV) or vehicle (0.9% NaCl) were done by subcutaneous (s.c.) injections.
Experimental model of IHD: Transient left coronary artery ligation in vivo. Mice were subjected to a transient LCAL surgery as described before, with minor modifications [Tarnayski et al., 2004]. Mice were injected i.p. with buprenorphine (0.05 mg/kg) and placed in an induction chamber with inhalation anesthesia comprised of 3% isoflurane mixed with 100% oxygen. Mice were intubated with a blunt ended 20-gauge catheter into the trachea via the mouth and mechanically ventilated at a tidal volume of 7 ml/kg at 130 respirations/min with a MiniVent™ mouse ventilator (model 845, Harvard Apparatus, Saint-Laurent, QC, Canada). Anesthesia was maintained with 1.5-2% isoflurane and the animals were kept warm using electrical heating pads during the surgical procedure. The chest was opened by a horizontal incision through the skin and muscle layers at the third intercostal space exposing the left side of the heart. […] Visual blanching distal to the coronary occlusion confirmed myocardial ischaemia. Lidocaine (6 mg/kg) was administered i.p. just following occlusion and prior to reperfusion. After 30 minutes, the PE10 tubing was removed allowing reperfusion. The lungs were reinflated and the chest wound closed layer by layer before extubation. […] Hearts were immediately frozen at −80° C. unless otherwise stated. […]
Plasma and tissue assays. Plasma insulin, triglyceride (TG) and NEFA levels were measured as previously described [Menard et al., 2009]. In vitro lipolysis was prevented by collecting blood in the presence of 40 mM Orlistat (Calbiochem, San Diego, Calif., USA) and centrifuging rapidly. Plasma and tissue lipids were extracted according to the method described by Folch et al. [Folch et al., 1957]. The non-metabolized fraction of [^18F]-FTHA in plasma was determined using thin-layer chromatography from blood samples taken 2, 3, 5, 10, and 30 min after FTHA injection, and the metabolite corrected plasma curve was calculated by linear interpolation and used to correct the plasma input function (modified from [Ci et al., 2006]). Myocardial mitochondria were extracted with measurement of GDH activity to correct for extraction efficiency [Menard et al., 2009].

AMPK = assay: Western blot of left ventricle: phosphorylated AMPK to total AMPK; format: in vivo, mice
Experimental: Experimental model of IHD: Transient left coronary artery ligation in vivo. Mice were subjected to a transient LCAL surgery as described before, with minor modifications [Tarnayski et al., 2004]. Mice were injected i.p. with buprenorphine (0.05 mg/kg) and placed in an induction chamber with inhalation anesthesia comprised of 3% isoflurane mixed with 100% oxygen. Mice were intubated with a blunt ended 20-gauge catheter into the trachea via the mouth and mechanically ventilated at a tidal volume of 7 ml/kg at 130 respirations/min with a MiniVent™ mouse ventilator (model 845, Harvard Apparatus, Saint-Laurent, QC, Canada). Anesthesia was maintained with 1.5-2% isoflurane and the animals were kept warm using electrical heating pads during the surgical procedure. The chest was opened by a horizontal incision through the skin and muscle layers at the third intercostal space exposing the left side of the heart. […] Visual blanching distal to the coronary occlusion confirmed myocardial ischaemia. Lidocaine (6 mg/kg) was administered i.p. just following occlusion and prior to reperfusion. After 30 minutes, the PE10 tubing was removed allowing reperfusion. The lungs were reinflated and the chest wound closed layer by layer before extubation. […] Hearts were immediately frozen at −80° C. unless otherwise stated.
Western blot analysis. Total ventricular protein lysates were prepared as described previously [Bodart et al., 2002]. Left ventricles were homogenized in PBS containing a protease inhibitor cocktail (Roche Applied Science, Indianapolis, Ind., USA) and 1 mM sodium orthovanadate. Homogenates were incubated for 10 min on ice with an equal volume of lysis buffer (NaCl 300 mM, Tris-HCl 100 mM, 2% Triton X-100, 0.2% SDS, 50 mM NaF, 4 mM EDTA, 1 mM sodium orthovanadate and protein inhibitors, pH=7.5), and centrifuged at 14,000 g for 30 minutes at 4° C. The protein concentration of the su pernatant was determined by the bicinchoninic acid (BCA) protein assay (Pierce Biotechnology, Rockford, Ill., USA). Equal amounts (50 or 100 μg) of protein extracts were separated on 10% SDS-polyacrylamide gels and transferred electrophoretically to polyvinylidene difluoride (PVDF) membranes (Bio-Rad Laboratories, Hercules, Calif., USA) for immunoblotting. […] Antibody binding was detected by enhanced chemiluminescence using an alpha Imager™ (Alpha Innotech Corporation, San Leandro, Calif., USA). Quantification of the digital images obtained was performed using ImageQuant™ 5.2 software (Molecular Dynamics, Sunnyvale, Calif., USA).

[2] = 6 h post-reperfusion, CD36^+/+ mice
[3] = 6 h post-reperfusion, CD36^−/− mice
[4] = 48 h post-reperfusion, CD36^+/+ mice
[5] = 48 h post-reperfusion, CD36^−/− mice

Substance: HAIC-2MeDTrp-DLys-Trp-DPhe-Lys-NH2 [EP 80317]
- effect on plasma TG ([1]; 6 or 48 hours following reperfusion, both CD36^+/+ and CD36^−/− mice, in words): did not modulate
- attenuation of plasma NEFA elevation ([1]; 6 hours after reperfusion, CD36-dependent (CD36^+/+ mice), p<0.05 vs vehicle): 29%
- Triglyceride [1, 2]: 0.35 ± 0.04 mmol/L
- Glycemia Post-Reperfusion [1, 2]: 13.6 ± 1.2 (20) mmol/L
- Total Cholesterol [1, 2]: 1.4 ± 0.3 (4) mmol/L
- Triglyceride [1, 3]: 0.58 ± 0.16 mmol/L
- Glycemia Post-Reperfusion [1, 3]: 8.8 ± 0.6 (17) mmol/L
- Total Cholesterol [1, 3]: 1.9 ± 0.1 (5) mmol/L
- effect on plasma NEFA levels ([1]; 48 hours after reperfusion, in words): no effect
- Triglyceride [1, 4]: 0.44 ± 0.03 mmol/L
- Total Cholesterol [1, 4]: 1.5 ± 0.03 (6) mmol/L
- Triglyceride [1, 5]: 0.55 ± 0.06 mmol/L
- Total Cholesterol [1, 5]: 2.5 ± 0.2 (4) mmol/L
- Glycemia Before Ischemia ([1]; CD36^+/+ mice): 10.6 ± 0.4 (15) mmol/L
- Glycemia Before Ischemia ([1]; CD36^−/− mice): 9.3 ± 0.5 (8) mmol/L
- increase of P-AMPK to total AMPK band density ratio (AMPK; 6 hours reperfusion, CD36^+/+ mice, p<0.01): 121%
- effect on P-AMPK/AMPK ratio (AMPK; 6 hours reperfusion, CD36^−/− mice, in words): no effect
- P-AMPK/AMPK density ratio (AMPK; 48 hours reperfusion, CD36^+/+ mice, in words): tended to decrease
- effect on AMPK phosphoprotein signal (AMPK; 48 hours reperfusion, genotype not printed in the sentence (FIG. 7D), in words): no significant effect
